Test results as given in publication PMC7109127 (British Journal of Cancer, 2020).
Several values for one entry are separate records, joined by “and”; a condition that tells them apart may be missing. Equal values may be shown once. Read-outs that look alike come from different tables or passages of the source.

Columns and labels:
advanced HCC = test: phase 1b/2 study, antineoplastic efficacy (RECIST 1.1, PFS, OS); format: in vivo, patients
Procedure: This was a phase 1b/2, open-label, single-arm multicentre clinical trial. Subjects were accrued at Roswell Park Comprehensive Cancer Centre (RPCI) and Case Comprehensive Cancer Centre. The respective institutional review board (IRB) approved the protocol at each site. The study was conducted according to the principles of the Declaration of Helsinki, the International Conference on Harmonisation and the Guidelines for Good Clinical Practice. All patients provided written informed consent. The trial was registered with ClinicalTrials.gov (NCT01835223).
Secondary objectives included determination of safety and the PK/PD of tivozanib in patients with advanced HCC. The primary endpoint was PFS at 24 weeks. PFS and not ORR were selected because at the time of study inception PFS or time to progression were acceptable primary efficacy endpoints in early phase HCC studies in view of very low ORR with anti-VEGFR agents. Patients who remained alive and without evidence of disease progression per RECIST 1.1 for at least 24 weeks after enrolment were considered as PFS responders. Secondary endpoints were AEs by CTCAE v4.0, steady state PK, ORR, OS, change in HBV or HCV viral load, serum α-fetoprotein (AFP), and changes in soluble VEGFR-2 (sVEGFR-2).
Using the 3+3 design, the MTD was the DL with probability of DLT 33% or higher. With three dose levels, between 6 and 18 patients were required to complete the phase 1b portion. In terms of antineoplastic efficacy, the true progression rate of less than p0 = 0.50 was considered unacceptable and evidence of such will deem the treatment not worthy of further study. The null and alternative hypotheses tested were H0: p = p0 vs. H1: p > p0. With this two-stage design, a potential total of 37 patients was required to achieve 80% power to detect a difference of at least 20% with a type I error of 5%. Using a two-stage design, a total of 19 patients were planned to be enrolled initially, including the phase 1b patients treated at the MTD/RP2D. If nine or fewer PFS responses were observed, the therapy would be deemed ineffective and the study would end. Otherwise, an additional 18 patients would be enrolled. If 23 or fewer PFS responses are observed in the total efficacy population, therapy would be deemed ineffective; otherwise, it will be concluded that the therapy is promising. The differences on outcomes between study groups were compared by non-parametric Kruskal–Wallis test and Fisher’s/χ^2 test. OS and PFS were estimated by the Kaplan–Meier method and compared by log-rank test. All tests were two sided and performed at a nominal significance level of 0.05. SAS version 9.4 (SAS Institute, Cary, NC) is used for statistical analyses.

c-kit = details: in vitro; read-out: half-maximal inhibitory concentration, c-kit phosphorylation; cited from earlier work
SK-HEP-1 cells = details: cited from earlier work
[1] = cited from earlier work; for mean AUC0–24 / median tmax: all solid tumours, 1 mg
[2] = system: metastatic renal cell carcinoma; details: TIVO-1; cited from earlier work
[3] = healthy volunteers; cited from earlier work
CYP3A4 = details: background statement; cited from earlier work
[4] = cited from earlier work
PDGFRβ = test: in vitro inhibition of PDGFRβ phosphorylation
[5] = RP2D 1 mg, efficacy population N = 19
[6] = all solid tumours, 1 mg dose level

COc1cc2nccc(Oc3ccc(NC(=O)Nc4cc(C)on4)c(Cl)c3)c2cc1OC [tivozanib]
24-week PFS probability (advanced HCC; Kaplan–Meier, N = 19): 58% | 1-year OS rate (advanced HCC; N = 19): 40% | 2-year OS rate (advanced HCC; N = 19): 30% | overall disease control rate (advanced HCC; RECIST 1.1, N = 19): 63% | PFS responders at 24 weeks (6-month PFS) (advanced HCC; RP2D 1 mg, N = 19): 47.3% | overall response rate (PR, RECIST 1.1) (advanced HCC; RP2D 1 mg, N = 19): 21% | median OS (advanced HCC; [5]): 9 months and 9.0 months | median PFS (advanced HCC; [5]): 24 weeks | IC50 (c-kit): 1.63 nM | tumour growth inhibition (SK-HEP-1 cells; daily oral 0.2 mg/kg for 2 weeks): ~60% | tumour inhibition (SK-HEP-1 cells; daily oral 1 mg/kg): ~90% | mean AUC0–24 ([1]; multiple doses): 856 ng·h/mL | median tmax ([1]; multiple doses): 4.01 h | mean AUC0–24 ([1]; single dose): 131.2 ng·h/mL | median tmax ([1]; single dose): 6.01 h | half-life [1]: 88.8 to 113 h | overall response rate (ORR) [2]: 33.1% | progression-free survival (PFS) [2]: 11.9 months | difference in total drug exposure with food consumption [3]: did not show a difference | interaction with CYP3A4 inhibitors (CYP3A4): no interaction | Dry skin, any grade [4, 6]: 28% | Fatigue, any grade [4, 6]: 55% | Fatigue, grade 3–4 [4, 6]: 6% | Hypertension, any grade [4, 6]: 39% | Hypertension, grade 3–4 [4, 6]: 28% | Palmar–plantar erythrodysesthesia, any grade [4, 6]: 22% | maximum-tolerated dose (MTD) and RP2D ([4]; once daily, 4 weeks on–2 weeks off, advanced refractory solid malignancies): 1.5 mg | activity against PDGFRβ, times higher compared to lenvatinib (PDGFRβ): 197 times | activity against PDGFRβ, times higher compared to sorafenib (PDGFRβ): 46 times
